Consider five molecules from patent publication US20070264354A1, “TREATMENT OF A WOUND WITH A VASODILATOR” (priority 2006, published 2007).

The test system of one assay is venous stasis ulcers. The settings on record: CGRP and VIP given together by iontophoresis (Gherardini et al, 1998b); cited from earlier work.
Assay [1] has as its system capsaicin-sensitive cutaneous nerves (small sensory fibers). As to the kind of experiment: Acute topical capsaicin-induced cutaneous blood flow by laser Doppler flowmetry. The assay is classed as in vivo, human.
Assay [2] has the same test system. As to the kind of experiment: Heat-step heat pain threshold after acute topical capsaicin (primary hyperalgesia). The assay is classed as in vivo, human. As for the experimental part: In the heat-step procedure, basal blood flow was monitored at resting skin temperature and later at 32° C. The temperature was raised in increments of 2° C. per minute until a maximum temperature value of 48° C. was reached. Sensory responses (specifically, heat pain threshold, HPT) and peak net flows at each increment were documented. A second heat-step test followed an acute application of topical capsaicin to the skin to measure sensitization by HPT, i.e., primary hyperalgesia. Two normal and obese subjects complained that the pungency from the capsaicin was extreme and, as a consequence, the heat-step test for hyperalgesia was not conducted.

Assay [3] has the same test system. As to the kind of experiment: Capsaicin-induced desensitization (Cap-D). The class given is in vivo, human. As for the experimental part: Capsaicin-Induced Desensitization: Eight (8) normal subjects were recruited to ascertain the degree of capsaicin sensitivity of each of the tests described above. Each subject applied topical capsaicin to one forearm and thigh, and the vehicle to the opposing limb in 45 minute applications, 3-4 times daily for 5 days.

Assay [4] shares this test system. The experiment in a line: Capsaicin-induced pungency (quality of sensation). The class given is in vivo, human. The protocol: Topical Capsaicin: Capsaicin, 8-methyl-N-vanillyl-6-nonenamide, is a vanilloid neurotoxin that targets somatic small primary afferent neurons. Capsaicin (1% in 75% ethanol, 25% saline) was applied topically for 45 minutes through a central chamber (300 μl capacity, 1 cm diameter) in a clear circular plastic perspex adhered to the skin. Throughout the application, perceptual responses and peak flow values were obtained. The vehicle was applied at different skin sites to 6 normal subjects.

In a further assay the test system is wound areas. Conditions: 50 ul of 110 ug/ml solution topically (Li et al, 1980); cited from earlier work.
Another assay has as its system leukocyte chemotaxis. Conditions: subdermal air sacs, mice (Lawman et al, 1985); cited from earlier work.
Another assay concerns diabetic wounds. Conditions: cited from earlier work.
For another assay, the system named is NOS. The settings on record: animals (Isenberg et al, 2005); cited from earlier work.

Where no end group is shown, it is not given here.

As for “VIP: Vasoactive Intestinal Polypeptide, peptide released by C-fibers (HSDAVFTDNYTRLRKQMAVKKYLNSILN; ends and bridges not checked; UniProt P01282 125-152, looked up)”, the “healing of venous stasis ulcers” value in the assay with venous stasis ulcers was “improved healing of venous stasis ulcers”.

Regarding `COc1cc(CNC(=O)CCCCC=CC(C)C)ccc1O` [Capsaicin, 8-methyl-N-vanillyl-6-nonenamide], the “Capsaicin Latency, Indirect, Normal, Mean” value in assay [1] (latency to flare, indirect site, normal subjects) is recorded as 12 min. The “Capsaicin Latency, Indirect, Obese, Mean” value in assay [1] (latency to flare, indirect site, obese subjects) was found to be 26 min. In addition, the “Capsaicin Latency, Direct, Normal, Mean” value in [1] (latency to vasodilatory response, direct site, normal subjects) worked out at 11 min. Further, the “Capsaicin Latency, Direct, Obese, Mean” value in assay [1] (latency to vasodilatory response, direct site, obese subjects) was 21 min. The “Capsaicin Flux, Direct, Normal, Mean” value in [1] (net peak flux, direct flow site, 1% topical capsaicin 45 min, forearm, normal subjects) is on record as 299 AU. Moreover, the “Capsaicin Flux, Direct, Obese, Mean” value in [1] (net peak flux, direct flow site, 1% topical capsaicin 45 min, forearm, obese subjects) was determined as 159 AU. Also, the “Capsaicin Flux, Indirect, Normal, Mean” value in assay [1] (net peak flux, indirect flow (flare) site, 1% topical capsaicin 45 min, normal subjects) worked out at 257 AU. The “Capsaicin Flux, Indirect, Obese, Mean” value in assay [1] (net peak flux, indirect flow (flare) site, 1% topical capsaicin 45 min, obese subjects) was 128 AU. Moreover, the “Heat Step HPT Post-Cap - Hyperalgesia, Normal, Mean” value in assay [2] (after acute topical capsaicin, normal subjects) was 37.1 °C. Further, in assay [2] (after acute topical capsaicin, obese subjects), the “Heat Step HPT Post-Cap - Hyperalgesia, Obese, Mean” value was determined as 39.8 °C. The “fall in the HPT, average” value in assay [2] (both normal and obese groups, p<0.001) was about 7 C. In assay [2] (normal population, n=11/13), the “share of population with pronounced hyperalgesic response” value is given as about 90%. The “share of population with pronounced hyperalgesic response” value in assay [2] (obese population, n=43/53) is reported as “Approximately 80%”. Moreover, the “heat-induced flux in heat-ramp test after Cap-D” value in assay [3] (direct and indirect flow, versus vehicle) was “decreased significantly”. Further, in assay [3] (indirect site), the “dose (mC)-response (flux) curve to transcutaneous electrical stimulation after Cap-D” value was “abolished neurogenic flare”. Moreover, in assay [3] (normal subjects n=8), the “blood flow on acute capsaicin challenge after Cap-D” value was “virtually no increased blood flow” and the “pungency on acute capsaicin challenge after Cap-D” value was “no pungency”. Moreover, the “HPT after capsaicin-induced desensitization” value in assay [3] (topical capsaicin 3-4 times daily for 5 days, normal subjects n=8, maximum temperature utilized) was over 48 °C. Further, in assay [4] (normal subjects), the capsaicin-induced pungency level stood at 90%, the share perceiving burn/pain entry is reported as “approximately 80%” and the “share reporting a stinging/prickly sensation” value came out at 20%. For the same molecule, in assay [4] (obese subjects), the capsaicin-induced pungency level is given as 45%.

Take “NGF: Nerve growth factor, instrumental in the synthesis of sensory neuropeptides in the DRG”: the wound healing entry with wound areas is “markedly accelerated healing”. Besides, the leukocyte chemotaxis entry with leukocyte chemotaxis is listed as “significantly increased leukocyte chemotaxis”.

In the case of `N=C(N)NCCC[C@H](N)C(=O)O` [LA, L-Arginine], the wound healing result in the assay on diabetic wounds (diabetic rats (Shi et al)) is on record as “improve wound healing”. Further, in the assay on diabetic wounds (diabetic wounds (Shi et al)), the “wound NOx levels” value is given as “increased NOx levels to normal values”.

Consider `COC(=O)[C@@H](N)CCCNC(=N)N[N+](=O)[O-]` [L-NAME], for which the “vessel diameter and blood flow in skin flaps” value with NOS is “marked decreases in vessel diameter and blood flow”.
